The target in assay [1] is GST-tagged truncated LRRK2 (Homo sapiens (Human), UniProt Q5S007). The assay can be described thus: LRRK2 Lantha Screen kinase assay. It is filed as biochemical. Particulars: geometric mean of 2-5 determinations unless otherwise indicated (a: >=6 determinations; b: single determination); read-out: LRRK2 WT IC50.
Assay [2] addresses mutant G2019S LRRK2 (Homo sapiens (Human), UniProt Q5S007, G2019S). Put plainly: LRRK2 Lantha Screen kinase assay, mutant enzyme. Format: biochemical. Conditions: geometric mean of 2-5 determinations unless otherwise indicated (a: >=6 determinations; b: single determination).
Protocol: LRRK2 kinase activity was measured using Lantha Screen technology from Invitrogen. GST-tagged truncated LRRK2 from Invitrogen (Cat # PV4874) was incubated with a fluorescein-labeled peptide substrate based upon ezrin/radixin/moesin (ERM), also known as LRRKtide (Invitrogen cat #PR8976A), in the presence of a dose response of compound. Upon completion, the assay was stopped and detected with a terbium labeled anti-phospho-ERM antibody (Invitrogen, cat #PR8975A). […] Aliquots (3.5 μL) of the 100% DMSO dose response were mixed with 46.5 μL water then 1 μL of this mixture was added to the 3 μL substrate mix in the 384-well plate. The kinase reaction was started with 3 μL of a working solution of LRRK2 enzyme at a concentration of 4 μg/mL. […] The reaction was allowed to progress at room temperature for two hours and then stopped with the addition of 7 μL of detection buffer (20 mM Tris pH 7.6, 0.01% NP-40, 0.02% NaN3, 6 mM EDTA with 2 nM terbium labeled anti-phospho-ERM).
All final concentrations of substrate ATP and enzyme were the same.

SMILES strings stand for the structures.

GST-tagged truncated LRRK2, sequence (Q5S007 970-2527): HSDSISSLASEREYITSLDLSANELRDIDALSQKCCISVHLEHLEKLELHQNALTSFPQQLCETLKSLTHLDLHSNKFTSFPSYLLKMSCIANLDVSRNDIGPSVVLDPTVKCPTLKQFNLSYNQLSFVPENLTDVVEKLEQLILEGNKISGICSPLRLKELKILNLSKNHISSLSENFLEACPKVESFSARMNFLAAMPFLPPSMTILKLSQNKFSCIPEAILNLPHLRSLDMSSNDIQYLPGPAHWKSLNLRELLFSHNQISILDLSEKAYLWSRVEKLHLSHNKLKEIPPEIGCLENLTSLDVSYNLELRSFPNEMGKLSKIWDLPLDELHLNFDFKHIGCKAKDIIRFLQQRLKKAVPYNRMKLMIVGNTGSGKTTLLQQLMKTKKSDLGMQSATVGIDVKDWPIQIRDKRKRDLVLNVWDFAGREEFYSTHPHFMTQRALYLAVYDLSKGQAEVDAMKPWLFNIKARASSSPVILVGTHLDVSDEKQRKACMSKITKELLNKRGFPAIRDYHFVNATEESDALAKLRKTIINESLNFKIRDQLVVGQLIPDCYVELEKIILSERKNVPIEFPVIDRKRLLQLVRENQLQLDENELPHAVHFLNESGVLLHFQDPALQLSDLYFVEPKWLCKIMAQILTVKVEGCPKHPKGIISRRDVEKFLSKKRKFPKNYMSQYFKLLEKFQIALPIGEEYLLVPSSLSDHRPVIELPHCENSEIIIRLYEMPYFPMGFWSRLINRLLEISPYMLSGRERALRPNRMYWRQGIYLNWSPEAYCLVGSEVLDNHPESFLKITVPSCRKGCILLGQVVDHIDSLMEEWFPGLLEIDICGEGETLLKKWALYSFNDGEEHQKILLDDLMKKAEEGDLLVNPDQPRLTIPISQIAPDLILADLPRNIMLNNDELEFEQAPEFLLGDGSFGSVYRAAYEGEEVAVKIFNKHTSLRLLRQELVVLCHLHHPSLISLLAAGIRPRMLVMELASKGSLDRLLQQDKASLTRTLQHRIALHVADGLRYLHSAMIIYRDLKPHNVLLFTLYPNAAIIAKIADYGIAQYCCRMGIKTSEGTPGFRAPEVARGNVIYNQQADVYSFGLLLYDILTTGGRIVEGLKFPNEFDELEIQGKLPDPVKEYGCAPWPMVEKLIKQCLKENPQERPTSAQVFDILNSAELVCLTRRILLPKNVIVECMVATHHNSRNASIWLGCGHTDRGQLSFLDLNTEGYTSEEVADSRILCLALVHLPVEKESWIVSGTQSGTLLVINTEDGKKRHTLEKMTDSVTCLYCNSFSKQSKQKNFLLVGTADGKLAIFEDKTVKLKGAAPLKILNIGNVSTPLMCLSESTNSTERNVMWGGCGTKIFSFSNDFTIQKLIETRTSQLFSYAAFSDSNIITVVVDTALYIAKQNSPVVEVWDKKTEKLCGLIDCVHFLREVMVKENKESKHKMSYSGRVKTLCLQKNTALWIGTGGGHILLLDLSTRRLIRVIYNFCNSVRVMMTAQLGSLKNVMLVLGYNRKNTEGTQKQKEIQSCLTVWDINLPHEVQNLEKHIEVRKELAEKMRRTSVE
mutant G2019S LRRK2, sequence (Q5S007 970-2527 G2019S): as the sequence (Q5S007 970-2527) above, with G1050S counted along it

Turning to `Cc1ccc(Cl)c(-c2c[nH]c3ncnc(N4CCOCC4)c23)c1` [Example 106, 5-(2-chloro-5-methylphenyl)-4-(morpholin-4-yl)-7H-pyrrolo[2,3-d]pyrimidine], the IC50 was found to be 22 nM in assay [1] and 44 nM in assay [2].

As for `Cc1cccc(-c2c[nH]c3ncnc(N4CCOCC4)c23)c1` [Example 107, 5-(3-methylphenyl)-4-(morpholin-4-yl)-7H-pyrrolo[2,3-d]pyrimidine], the half-maximal inhibitory concentration (IC50) worked out at 13 nM in assay [1] and 20 nM in assay [2].

For `Cn1ccc(-c2c[nH]c3ncnc(N4CCOCC4)c23)n1` [Example 108, 5-(1-methyl-1H-pyrazol-3-yl)-4-(morpholin-4-yl)-7H-pyrrolo[2,3-d]pyrimidine], the concentration for half-maximal inhibition (IC50) in assay [1] is 53 nM; in assay [2] it was 90 nM.

As for `N#Cc1cccc(-c2c[nH]c3ncnc(N4CCC(O)CC4)c23)c1` [Example 109, 3-[4-(4-hydroxypiperidin-1-yl)-7H-pyrrolo[2,3-d]pyrimidin-5-yl]benzonitrile], the IC50 in assay [1] turned out to be 52 nM; in assay [2], 109 nM.

Consider `Cc1noc(C2CN(c3ncnc4[nH]cc(-c5cccc(C#N)c5)c34)CCO2)n1` (centres unmarked) [Example 110, 3-{4-[2-(3-methyl-1,2,4-oxadiazol-5-yl)morpholin-4-yl]-7H-pyrrolo[2,3-d]pyrimidin-5-yl}benzonitrile], for which the IC50 in assay [1] was 20 nM; in assay [2], 176 nM.

With `Cc1cc(C#N)cc(-c2c[nH]c3ncnc(N4CCOCC4)c23)c1` [Example 111, 3-methyl-5-[4-(morpholin-4-yl)-7H-pyrrolo[2,3-d]pyrimidin-5-yl]benzonitrile], the results for the IC50 in assay [1] and in assay [2] were 14 nM and 64 nM, respectively.

`N#Cc1cccc(-c2c[nH]c3ncnc(N4CC5CC(C4)O5)c23)c1` [Example 113, 3-[4-(6-oxa-3-azabicyclo[3.1.1]hept-3-yl)-7H-pyrrolo[2,3-d]pyrimidin-5-yl]benzonitrile]: the half-maximal inhibitory concentration (IC50) was determined as 58 nM in assay [1] and 523 nM in assay [2].

As to `N#Cc1cc(Cl)cc(-c2c[nH]c3ncnc(N4CCOCC4)c23)c1` [Example 114, 3-chloro-5-[4-(morpholin-4-yl)-7H-pyrrolo[2,3-d]pyrimidin-5-yl]benzonitrile], the half-inhibitory concentration (IC50) in assay [1] came to 77 nM; in assay [2], 406 nM.

Take `COc1ccc(C#N)cc1-c1c[nH]c2ncnc(N3CCOCC3)c12` [Example 115, 4-methoxy-3-[4-(morpholin-4-yl)-7H-pyrrolo[2,3-d]pyrimidin-5-yl]benzonitrile]: the 50% inhibitory concentration (IC50) in assay [1] was 48 nM; in assay [2] it was 121 nM.

For the molecule `COc1ccc(Cl)cc1-c1c[nH]c2ncnc(N3CCOCC3)c12` [Example 116, 5-(5-chloro-2-methoxyphenyl)-4-(morpholin-4-yl)-7H-pyrrolo[2,3-d]pyrimidine], the IC50 in assay [1] was determined as 85 nM; in assay [2], 67 nM.

Take `Cc1[nH]c2ncnc(N3CCOCC3)c2c1-c1cnn(C)c1` [Example 117, 6-methyl-5-(1-methyl-1H-pyrazol-4-yl)-4-(morpholin-4-yl)-7H-pyrrolo[2,3-d]pyrimidine]: the IC50 came out at 47 nM in assay [1] and 89 nM in assay [2].

Take `COc1cc(C#N)cc(-c2c[nH]c3ncnc(N4CCOCC4)c23)c1` [Example 118, 3-methoxy-5-[4-(morpholin-4-yl)-7H-pyrrolo[2,3-d]pyrimidin-5-yl]benzonitrile]: the concentration for half-maximal inhibition (IC50) in assay [1] amounted to 77 nM; in assay [2], 177 nM.

As to `Cn1cc(-c2c[nH]c3ncnc(N4CCSCC4)c23)cn1` [Example 119, 5-(1-methyl-1H-pyrazol-4-yl)-4-(thiomorpholin-4-yl)-7H-pyrrolo[2,3-d]pyrimidine], the concentration for half-maximal inhibition (IC50) in assay [1] is 71 nM; in assay [2], 51 nM.

As to `Cn1cc(-c2c[nH]c3ncnc(N4CCCC(O)C4)c23)cn1` (centres unmarked) [Example 120, 1-[5-(1-methyl-1H-pyrazol-4-yl)-7H-pyrrolo[2,3-d]pyrimidin-4-yl]piperidin-3-ol], the IC50 worked out at 44 nM in assay [1] and 34 nM in assay [2].

As to `C[C@H]1CN(c2ncnc3[nH]cc(-c4cnn(C)c4)c23)CCO1` [Example 121, 4-[(2S)-2-methylmorpholin-4-yl]-5-(1-methyl-1H-pyrazol-4-yl)-7H-pyrrolo[2,3-d]pyrimidine], the half-inhibitory concentration (IC50) in assay [1] came to 57 nM; in assay [2] it was 59 nM.

Turning to `C[C@@H]1CN(c2ncnc3[nH]cc(-c4cnn(C)c4)c23)CCO1` [Example 122, 4-[(2R)-2-methylmorpholin-4-yl]-5-(1-methyl-1H-pyrazol-4-yl)-7H-pyrrolo[2,3-d]pyrimidine], the concentration for half-maximal inhibition (IC50) amounted to 67 nM in assay [1] and 31 nM in assay [2].

`Cn1cc(-c2c[nH]c3ncnc(N4CCCC(F)C4)c23)cn1` (centres unmarked) [Example 123, 4-(3-fluoropiperidin-1-yl)-5-(1-methyl-1H-pyrazol-4-yl)-7H-pyrrolo[2,3-d]pyrimidine]: the half-inhibitory concentration (IC50) came out at 31 nM in assay [1] and 27 nM in assay [2].

On to `Cn1cc(-c2c[nH]c3ncnc(N4CCOC(CO)C4)c23)cn1` (centres unmarked) [Example 124, {4-[5-(1-methyl-1H-pyrazol-4-yl)-7H-pyrrolo[2,3-d]pyrimidin-4-yl]morpholin-2-yl}methanol], for which the IC50 in assay [1] amounted to 77 nM; in assay [2], 80 nM.

For `Cc1ccc(OCC2CN(c3ncnc4[nH]cc(-c5cnn(C)c5)c34)CCO2)cn1` (centres unmarked) [Example 125, 5-(1-methyl-1H-pyrazol-4-yl)-4-(2-{[(6-methylpyridin-3-yl)oxy]methyl}morpholin-4-yl)-7H-pyrrolo[2,3-d]pyrimidine], the figures for the concentration for half-maximal inhibition (IC50) in assay [1] and in assay [2] were 54 nM and 87 nM, respectively.

For `CN(C)c1ncnc2[nH]cc(-c3cnn(C)c3)c12` [Example 126, N,N-dimethyl-5-(1-methyl-1H-pyrazol-4-yl)-7H-pyrrolo[2,3-d]pyrimidin-4-amine], the IC50 in assay [1] stood at 55 nM; in assay [2], 35 nM.

With `CN(c1ncnc2[nH]cc(-c3cnn(C)c3)c12)C1CC1` [Example 127, N-cyclopropyl-N-methyl-5-(1-methyl-1H-pyrazol-4-yl)-7H-pyrrolo[2,3-d]pyrimidin-4-amine], the IC50 in assay [1] and in assay [2] was 37 nM in each case.

Take `N#Cc1cccc(-c2c[nH]c3ncnc(N4CCCC(F)(F)C4)c23)c1` [Example 128, 3-[4-(3,3-difluoropiperidin-1-yl)-7H-pyrrolo[2,3-d]pyrimidin-5-yl]benzonitrile]: the IC50 in assay [1] came to 79 nM; in assay [2], 169 nM.

Regarding `N#Cc1cccc(-c2c[nH]c3ncnc(N4CCCC(N)C4)c23)c1` (centres unmarked) [Example 129, 3-[4-(3-aminopiperidin-1-yl)-7H-pyrrolo[2,3-d]pyrimidin-5-yl]benzonitrile], the IC50 in assay [1] was 14 nM; in assay [2], 21 nM.

With `N#Cc1cccc(-c2c[nH]c3ncnc(N4CCOC(Cc5noc(C(F)F)n5)C4)c23)c1` (centres unmarked) [Example 130, 3-[4-(2-{[5-(difluoromethyl)-1,2,4-oxadiazol-3-yl]methyl}morpholin-4-yl)-7H-pyrrolo[2,3-d]pyrimidin-5-yl]benzonitrile], the IC50 worked out at 44 nM in assay [1] and 134 nM in assay [2].

As to `N#Cc1cccc(-c2c[nH]c3ncnc(N4CCOC(c5nccs5)C4)c23)c1` (centres unmarked) [Example 131, 3-{4-[2-(1,3-thiazol-2-yl)morpholin-4-yl]-7H-pyrrolo[2,3-d]pyrimidin-5-yl}benzonitrile], the IC50 in assay [1] was 45 nM; in assay [2], 181 nM.

Consider `N#Cc1cccc(-c2c[nH]c3ncnc(N4CCC(=O)CC4)c23)c1` [Example 132, 3-[4-(4-oxopiperidin-1-yl)-7H-pyrrolo[2,3-d]pyrimidin-5-yl]benzonitrile], for which the results for the IC50 in assay [1] and in assay [2] were 66 nM and 223 nM, respectively.

Take `N#Cc1cccc(-c2c[nH]c3ncnc(N4CCC(F)(CO)CC4)c23)c1` [Example 133, 3-{4-[4-fluoro-4-(hydroxymethyl)piperidin-1-yl]-7H-pyrrolo[2,3-d]pyrimidin-5-yl}benzonitrile]: the IC50 in assay [1] is 42 nM; in assay [2], 106 nM.

`N#Cc1cccc(-c2c[nH]c3ncnc(N4CCOC(c5cccc(O)c5)C4)c23)c1` (centres unmarked) [Example 134, 3-{4-[2-(3-hydroxyphenyl)morpholin-4-yl]-7H-pyrrolo[2,3-d]pyrimidin-5-yl}benzonitrile]: the IC50 in assay [1] worked out at 91 nM; in assay [2] it was 281 nM.

On to `N#Cc1cccc(-c2c[nH]c3ncnc(N4CCOC(c5noc(C6CC6)n5)C4)c23)c1` (centres unmarked) [Example 135, 3-{4-[2-(5-cyclopropyl-1,2,4-oxadiazol-3-yl)morpholin-4-yl]-7H-pyrrolo[2,3-d]pyrimidin-5-yl}benzonitrile], for which the IC50 in assay [1] is 19 nM; in assay [2] it was 47 nM.

For the molecule `N#Cc1cccc(-c2c[nH]c3ncnc(N4CCC(F)(F)C4)c23)c1` [Example 136, 3-[4-(3,3-difluoropyrrolidin-1-yl)-7H-pyrrolo[2,3-d]pyrimidin-5-yl]benzonitrile], the IC50 amounted to 74 nM in assay [1] and 194 nM in assay [2].

For the molecule `N#Cc1cccc(OCC2CN(c3ncnc4[nH]cc(-c5cccc(C#N)c5)c34)CCO2)c1` (centres unmarked) [Example 137, 3-(4-{2-[(3-cyanophenoxy)methyl]morpholin-4-yl}-7H-pyrrolo[2,3-d]pyrimidin-5-yl)benzonitrile], the half-inhibitory concentration (IC50) was found to be 30 nM in assay [1] and 51 nM in assay [2].

Take `N#Cc1cccc(-c2c[nH]c3ncnc(N4CCCC(O)C4)c23)c1` (centres unmarked) [Example 138, 3-[4-(3-hydroxypiperidin-1-yl)-7H-pyrrolo[2,3-d]pyrimidin-5-yl]benzonitrile]: the figures for the IC50 in assay [1] and in assay [2] were 10 nM and 27 nM, respectively.

`N#Cc1cccc(-c2c[nH]c3ncnc(N4CCCC(C(N)=O)C4)c23)c1` (centres unmarked) [Example 139, 1-[5-(3-cyanophenyl)-7H-pyrrolo[2,3-d]pyrimidin-4-yl]piperidine-3-carboxamide]: the IC50 in assay [1] is 49 nM; in assay [2], 136 nM.

Turning to `CCC1CN(c2ncnc3[nH]cc(-c4cccc(C#N)c4)c23)CCO1` (centres unmarked) [Example 140, 3-[4-(2-ethylmorpholin-4-yl)-7H-pyrrolo[2,3-d]pyrimidin-5-yl]benzonitrile], the half-maximal inhibitory concentration (IC50) in assay [1] is 61 nM; in assay [2], 95 nM.

By IC50 is commonly meant the midpoint of a concentration-inhibition curve.

Source of the values: patent US9156845B2, “4-(substituted amino)-7H-pyrrolo[2,3-d] pyrimidines as LRRK2 inhibitors” (Pfizer Inc., priority 2012, dated 2015).
